Reference: patent publication US9284324B2, “Phenylpyrrole derivative” (TAISHO PHARMACEUTICAL CO., LTD, priority 2011, dated 2016)
Several values for one entry are separate records, joined by “and”; a condition that tells them apart may be missing. Identical values can stand only once.

Tests used:
H3 receptor = target: T1, H3 receptor (Rattus norvegicus, UniProt Q9QYN8); experiment: Rat H3 receptor binding test (N-α-methyl[3H]histamine); conditions: rat frontal cortex membrane fraction, N-α-methyl[3H]histamine 0.75 nM
T1 construct: The frontal cortex dissected from rats was homogenized; from tissue; host or cells: rat frontal cortex membrane fraction
Protocol: (Test 1: Rat H3 Receptor Binding Test)
The frontal cortex dissected from rats was homogenized with a Teflon homogenizer in a 50 mM Tris-HCl buffer solution (pH 7.4) containing a protease inhibitor (Complete EDTA-free; Roche Diagnostics) and 5 mM EDTA. The homogenate was centrifuged at 48,000×g for 15 minutes. The supernatant was removed and the pellet was suspended in a 50 mM Tris-HCl buffer solution (pH 7.4) containing 5 mM EDTA and centrifuged at 48,000×g for 15 minutes. The supernatant was removed and the pellet was suspended in a 50 mM Tris-HCl buffer solution (pH 7.4) containing 5 mM EDTA to give a membrane fraction. The membrane fraction (the protein content in the final reaction mixture: 75 μg), N-α-methyl[^3H]histamine (PerkinElmer; final concentration: 0.75 nM) and a test drug were mixed and subjected to reaction at room temperature for an hour. After the end of the reaction, the reaction mixture was suction filtered through a 96-well GF/C filter plate pretreated with 0.3% polyethyleneimine; the filters were then washed five times with a 50 mM Tris-HCl buffer solution (pH 7.4) containing 5 mM EDTA. After the washing, the filters were dried and a scintillator was added to measure the residual radioactivity on the filter with TopCount (PerkinElmer).
The residual radioactivity in the presence of 10 μM thioperamide was taken as indicative of nonspecific binding and the difference from the residual radioactivity in the absence of thioperamide was taken as indicative of specific binding. Each of the test drugs was dissolved and diluted in DMSO at varying concentrations to plot a dose-response curve from the corresponding residual radio activities; the concentration of test drug that inhibited the specific binding by 50% (IC50) was determined from this curve.

[1] = target: T2, P-glycoprotein (Human MDR1) (Homo sapiens, UniProt P08183); experiment: P-glycoprotein substrate recognition test; type: in vitro ADME; conditions: ratio of apical→basal and basal→apical membrane permeation coefficients; for efflux ratio at 10 μM: human, LLC-PK1, LLC-GA5-COL300 cells on transwell
T2 construct: expressed in transfected cells; host or cells: LLC-GA5-COL300 (derived from pig kidney LLC-PK1)
Protocol: (Test 4: P-Glycoprotein Substrate Recognition Test)
LLC-GA5-COL300 cells (Human MDR1 expressing system derived from pig kidney derived, cultured renal epithelial cell line LLC-PK1) were cultured on a transwell. Immediately before the test, the culture medium was replaced by Hank's balanced salt solution (HBSS) and the test was then conducted. A solution of an assay compound adjusted to a final concentration of 10 μM was added to the donor side of LLC-GA5-COL300 cells and after the passage of a predetermined period of time, a specified quantity of […] was sampled from the acceptor side. The concentration of the assay compound in the sample was measured by LC-MS/MS. From the amounts of the compound that accumulated and passed into the acceptor side, membrane permeation coefficients (×10^−6 cm/sec) were calculated for apical→basal and basal→apical directions and their relative ratio (efflux ratio) was determined to evaluate the P-glycoprotein substrate recognition.

[2] = Rat in vivo pharmacokinetic study; design: species or system SD rats; conditions: for concentration at 1 h / Kp at 1 h: SD, rat, in vivo, po, 3 mg/kg
Protocol: (Test 3: Rat In Vivo Pharmacokinetic Study)
SD rats were given a single oral administration of Compound No. 3, 4 or 7 at a dose of 3 mg/kg and an hour after the administration, the compound's distribution among the plasma, brain, and cerebrospinal fluid was checked. Quantification was effected by a high-performance chromatography/tandem mass spectrometer API 4000 (LC-MS/MS; AB Sciex). As it turned out, Compound Nos. 3, 4 and 7 had good brain/plasma movement ratios of 4.5, 2.9 and 2.2, respectively, with the corresponding intracerebral concentrations of 78.2 ng/g, 7.06 ng/g and 408 ng/g.

histamine H3 receptor = target: T3, histamine H3 receptor (Rattus norvegicus, UniProt Q9QYN8); experiment: [35S]GTP-γ-S binding test; type: biochemical; conditions: rat frontal cortex membrane fraction, R(−)-α-methyl histamine 300 nM, [35S]GTP-γ-S 0.3 nM
T3 construct: The frontal cortex dissected from rats was homogenized; from tissue; host or cells: rat frontal cortex membrane fraction
Protocol: (Test 2: [^35S]GTP-γ-S Binding Test)
The frontal cortex dissected from rats was homogenized with a Teflon homogenizer in a 30 mM Tris-HCl buffer solution (pH 7.4) containing 2.5 mM calcium chloride dihydrate. The homogenate was centrifuged at 48,000×g for 15 minutes. The supernatant was removed and the pellet was suspended in a 30 mM Tris-HCl buffer solution (pH 7.4) containing 2.5 mM calcium chloride dihydrate and centrifuged at 48,000×g for 15 minutes. The supernatant was removed and the pellet was suspended in a 30 mM Tris-HCl buffer solution (pH 7.4) containing 2.5 mM calcium chloride dihydrate and after incubation at 37° C. for 30 minutes, the suspension was centrifuged at 48,000×g for 15 minutes. The resulting supernatant was removed and the pellet was suspended in a 20 mM HEPES buffer solution (pH 7.4) containing 100 mM sodium chloride and 10 mM magnesium chloride to give a membrane fraction. […] After the washing, the filters were dried and a scintillator was added to measure the residual radioactivity on the filter with TopCount (PerkinElmer).
The residual radioactivity in the absence of R(−)-α-methyl histamine was taken as indicative of nonspecific binding and the difference from the residual radioactivity in the presence of R(−)-α-methyl histamine was taken as indicative of specific binding. […]

[3] = SD rats, single oral 3 mg/kg, an hour after administration
[4] = cerebrospinal fluid/plasma movement ratio

T1 sequence (Q9QYN8 whole entry): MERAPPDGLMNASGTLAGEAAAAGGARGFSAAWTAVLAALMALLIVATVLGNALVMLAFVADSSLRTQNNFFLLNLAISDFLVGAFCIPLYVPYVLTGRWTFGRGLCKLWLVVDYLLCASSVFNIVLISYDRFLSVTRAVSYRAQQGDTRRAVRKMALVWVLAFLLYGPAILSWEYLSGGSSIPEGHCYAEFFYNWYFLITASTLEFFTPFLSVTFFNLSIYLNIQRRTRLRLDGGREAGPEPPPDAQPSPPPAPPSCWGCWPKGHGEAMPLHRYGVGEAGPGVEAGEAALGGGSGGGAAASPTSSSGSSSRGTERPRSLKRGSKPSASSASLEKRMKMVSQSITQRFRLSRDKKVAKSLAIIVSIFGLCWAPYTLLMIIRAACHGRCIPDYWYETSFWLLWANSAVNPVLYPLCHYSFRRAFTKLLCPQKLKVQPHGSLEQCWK
T2 sequence (P08183 whole entry): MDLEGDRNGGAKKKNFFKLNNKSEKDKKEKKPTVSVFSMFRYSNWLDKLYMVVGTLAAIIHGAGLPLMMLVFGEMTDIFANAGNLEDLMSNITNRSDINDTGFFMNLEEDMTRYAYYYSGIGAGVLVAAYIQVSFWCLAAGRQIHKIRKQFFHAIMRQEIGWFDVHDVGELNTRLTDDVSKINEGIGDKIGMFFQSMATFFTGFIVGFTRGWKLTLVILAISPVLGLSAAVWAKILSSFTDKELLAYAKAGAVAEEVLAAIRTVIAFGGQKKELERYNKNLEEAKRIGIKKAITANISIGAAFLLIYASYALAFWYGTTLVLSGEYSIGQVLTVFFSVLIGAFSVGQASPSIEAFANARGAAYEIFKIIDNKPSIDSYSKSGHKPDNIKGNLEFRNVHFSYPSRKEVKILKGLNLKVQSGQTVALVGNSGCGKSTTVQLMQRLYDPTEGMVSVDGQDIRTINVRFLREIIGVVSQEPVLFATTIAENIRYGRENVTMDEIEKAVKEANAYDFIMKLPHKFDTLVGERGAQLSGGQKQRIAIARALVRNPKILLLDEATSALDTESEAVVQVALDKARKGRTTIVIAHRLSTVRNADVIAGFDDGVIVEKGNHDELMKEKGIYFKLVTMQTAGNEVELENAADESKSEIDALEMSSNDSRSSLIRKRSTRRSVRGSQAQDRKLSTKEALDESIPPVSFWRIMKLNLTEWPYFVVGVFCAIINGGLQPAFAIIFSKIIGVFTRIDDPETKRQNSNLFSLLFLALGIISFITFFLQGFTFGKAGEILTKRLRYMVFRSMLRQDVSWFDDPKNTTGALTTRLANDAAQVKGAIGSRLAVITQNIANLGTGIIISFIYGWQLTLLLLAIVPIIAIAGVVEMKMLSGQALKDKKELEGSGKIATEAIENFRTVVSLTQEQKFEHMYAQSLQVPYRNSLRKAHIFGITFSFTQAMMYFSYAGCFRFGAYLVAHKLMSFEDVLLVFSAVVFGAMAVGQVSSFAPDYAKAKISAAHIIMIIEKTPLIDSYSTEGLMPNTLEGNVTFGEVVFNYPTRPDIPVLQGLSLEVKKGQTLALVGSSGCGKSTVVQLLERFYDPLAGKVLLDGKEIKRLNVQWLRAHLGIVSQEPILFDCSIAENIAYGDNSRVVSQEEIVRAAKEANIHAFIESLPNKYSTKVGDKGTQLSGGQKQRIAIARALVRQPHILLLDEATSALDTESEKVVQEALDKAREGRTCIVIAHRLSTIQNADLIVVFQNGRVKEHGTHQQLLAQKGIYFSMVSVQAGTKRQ
T3 sequence (Q9QYN8 whole entry): as the sequence (Q9QYN8 whole entry) above

Row | Compound | IC50 (H3 receptor) [nM] | efflux ratio at 10 μM [1] | also measured
1 | (1-{4-[(1-cyclobutylpiperidin-4-yl)oxy]phenyl}-1H-pyrrol-3-yl)(piperidin-1-yl)methanol [compound 5] | 3.2 | – | –
2 | C[C@@H]1CCCN1CCCOc1ccc(-n2ccc(C(=O)N3CCCC3)c2)cc1 [Compound No. 16, [1-(4-{3-[(2R)-2-methylpyrrolidin-1-yl]propoxy}phenyl)-1H-pyrrol-3-yl](pyrrolidin-1-yl)methanone] | 1.5 | 3.1 | –
3 | (1-{4-[(1-cyclobutylpiperidin-4-yl)oxy]phenyl}-1H-pyrrol-3-yl)(pyrrolidin-1-yl)methanol [compound 4] | 1.1 | – | brain/plasma movement ratio [2, 3]: 2.9; intracerebral concentration [2, 3]: 7.06 ng/g; Efflux ratio ([1]; LLC-GA5-COL300 cells on transwell, 10 μM): 1.3
4 | Cc1cc(C(=O)N2CCCC2)c(C)n1-c1ccc(OC2CCN(C3CCC3)CC2)cc1 [Compound No. 15, (1-{4-[(1-cyclobutylpiperidin-4-yl)oxy]phenyl}-2,5-dimethyl-1H-pyrrol-3-yl)(pyrrolidin-1-yl)methanone] | 6.6 | – | –
5 | O=C(c1ccn(-c2ccc(OC3CCN(C4CCC4)CC3)cc2)c1)N1CC2(COC2)C1 [compound 11, (1-{4-[(1-cyclobutylpiperidin-4-yl)oxy]phenyl}-1H-pyrrol-3-yl)(2-oxa-6-azaspiro[3.3]hepta-6-yl)methanone] | 1 | – | –
6 | CNC(=O)c1ccn(-c2ccc(OC3CCN(C(C)(C)C)CC3)cc2)c1 [Compound No. 20, 1-{4-[(1-tert-butylpiperidin-4-yl)oxy]phenyl}-N-methyl-1H-pyrrole-3-carboxamide] | 21 | – | –
7 | NC(=O)c1ccn(-c2ccc(OC3CCN(C4CCC4)CC3)cc2)c1 [compound 8, 1-{4-[(1-cyclobutylpiperidin-4-yl)oxy]phenyl}-1H-pyrrole-3-carboxamide] | 9.5 | 1.6 | –
8 | CC(C)(C)N1CCC(Oc2ccc(-n3ccc(C(=O)N4CCCC4)c3)cc2)CC1 [Compound No. 19, (1-{4-[(1-tert-butylpiperidin-4-yl)oxy]phenyl}-1H-pyrrol-3-yl)(pyrrolidin-1-yl)methanone] | 1.7 | – | –
9 | O=C(O)c1ccn(-c2ccc(OC3CCN(C4CCC4)CC3)cc2)c1 [Compound No. 2, 1-{4-[(1-cyclobutylpiperidin-4-yl)oxy]phenyl}-1H-pyrrole-3-carboxylic acid] | 34 | – | –
10 | O=C(c1ccn(-c2ccc(OC3CCN(C4CCC4)CC3)cc2)c1)N1CCC1 [Compound No. 3, azetidin-1-yl (1-{4-[(1-cyclobutylpiperidin-4-yl)oxy]phenyl}-1H-pyrrol-3-yl)methanone] | 1.7 | 1.4 | IC50 (histamine H3 receptor): ≤ 100 nM; concentration at 1 h [2]: 78.2 ng/g and 5.75 ng/mL; Kp at 1 h ([2]; brain/plasma movement ratio): 4.5; Kp at 1 h [2, 4]: 0.3
11 | COC(=O)c1ccn(-c2ccc(OC3CCN(C4CCC4)CC3)cc2)c1 [Compound No. 1, methyl 1-{4-[(1-cyclobutylpiperidin-4-yl)oxy]phenyl}-1H-pyrrole-3-carboxylate] | 12 | – | –
12 | CNC(=O)c1ccn(-c2ccc(OC3CCN(C(C)C)CC3)cc2)c1 [Compound No. 18, 1-{4-[(1-isopropylpiperidin-4-yl)oxy]phenyl}-N-methyl-1H-pyrrole-3-carboxamide] | 38 | – | –
13 | CC(C)(C)NC(=O)c1ccn(-c2ccc(OC3CCN(C4CCC4)CC3)cc2)c1 [compound 12, N-tert-butyl-1-{4-[(1-cyclobutylpiperidin-4-yl)oxy]phenyl}-1H-pyrrole-3-carboxamide] | 5.2 | – | –
14 | O=C(c1ccn(-c2ccc(OC3CCN(C4CCC4)CC3)cc2)c1)N1CCOCC1 [compound 9, (1-{4-[(1-cyclobutylpiperidin-4-yl)oxy]phenyl}-1H-pyrrol-3-yl)(morpholin-4-yl)methanone] | 2.5 | 1.6 | –
15 | CNC(=O)c1ccn(-c2ccc(OC3CCN(C4CCC4)CC3)cc2)c1 [compound 7, 1-{4-[(1-cyclobutylpiperidin-4-yl)oxy]phenyl}-N-methyl-1H-pyrrole-3-carboxamide] | 5.9 | 1 | IC50 (histamine H3 receptor): ≤ 100 nM; concentration at 1 h [2]: 408 ng/g and 50.5 ng/mL; Kp at 1 h ([2]; brain/plasma movement ratio): 2.2; Kp at 1 h [2, 4]: 0.3
16 | O=C(NC1CCC1)c1ccn(-c2ccc(OC3CCN(C4CCC4)CC3)cc2)c1 [compound 13, N-cyclobutyl-1-{4-[(1-cyclobutylpiperidin-4-yl)oxy]phenyl}-1H-pyrrole-3-carboxamide] | 3.7 | – | –
17 | C[C@@H]1CN(C(=O)c2ccn(-c3ccc(OC4CCN(C5CCC5)CC4)cc3)c2)C[C@H](C)O1 [compound 10] | 6.8 | – | –
18 | CC(C)N1CCC(Oc2ccc(-n3ccc(C(=O)N4CCCC4)c3)cc2)CC1 [Compound No. 17, (1-{4-[(1-isopropylpiperidin-4-yl)oxy]phenyl}-1H-pyrrol-3-yl)(pyrrolidin-1-yl)methanone] | 1.1 | – | –
19 | CN(C)C(=O)c1ccn(-c2ccc(OC3CCN(C4CCC4)CC3)cc2)c1 [compound 6] | 3.2 | 1.2 | –
